Experimental data published in ChEMBL document CHEMBL1138700, “3-O-Glutaryl-dihydrobetulin and related monoacyl derivatives as potent anti-HIV agents” (Bioorg Med Chem Lett, 2004).
pEC50, pIC50: −log10 of the molar value.

Experiments:
[1] = Therapeutic index expressed as ratio of IC50 for 50% toxicity to EC50 for 50% inhibition; format: cell-based; details: human, H9 cells; read-out: TI
[2] = test system: Human immunodeficiency virus 1; assay: Concentration required to inhibit 50% of HIV-1 (human immunodeficiency virus-1) replication; format: functional, organism-based
H9 = assay: Concentration required to produce 50% toxicity against mock-infected H9 cells; format: functional, cell-based; details: Homo sapiens
[3] = test system: Human immunodeficiency virus 1; assay: Concentration required to inhibit 50% of HIV-1 (human immunodeficiency virus-1) replication; No suppression at concentrations up to 100 ug/mL.; format: functional, organism-based

`CC(C)[C@@H]1CC[C@]2(CO)CC[C@]3(C)[C@H](CC[C@@H]4[C@@]5(C)CC[C@H](OC(=O)CC(C)(C)CC(=O)O)C(C)(C)[C@@H]5CC[C@]43C)[C@@H]12` showed a selectivity ratio [1] of 19500, a pEC50 [2] of 8.89 and a pIC50 (H9) of 4.59.
Compound `C=C(C)[C@@H]1CC[C@]2(CO)CC[C@]3(C)[C@H](CC[C@@H]4[C@@]5(C)CC[C@H](OC(=O)COCC(=O)O)C(C)(C)[C@@H]5CC[C@]43C)[C@@H]12` has a selectivity ratio [1] greater than 1820, a pEC50 [2] of 7.70 and a pIC50 (H9) of less than 4.35.
Compound `C=C(C)[C@@H]1CC[C@]2(CO)CC[C@]3(C)[C@H](CC[C@@H]4[C@@]5(C)CC[C@H](OC(=O)CC(C)(C)C(=O)O)C(C)(C)[C@@H]5CC[C@]43C)[C@@H]12` has a selectivity ratio [1] of 5970, a pEC50 [2] of 8.25 and a pIC50 (H9) of 4.48.
With `C=C(C)[C@@H]1CC[C@]2(COC(=O)CC(C)(C)CC(=O)O)CC[C@]3(C)[C@H](CC[C@@H]4[C@@]5(C)CC[C@H](OC(=O)CC(C)(C)CC(=O)O)C(C)(C)[C@@H]5CC[C@]43C)[C@@H]12` the selectivity ratio [1] was 21500 and the pEC50 [2] was 9.18.
With `C=C(C)[C@@H]1CC[C@]2(CO)CC[C@]3(C)[C@H](CC[C@@H]4[C@@]5(C)CC[C@H](OC(=O)CCC(=O)O)C(C)(C)[C@@H]5CC[C@]43C)[C@@H]12` the EC50 [3] was “No suppression” and the pIC50 (H9) was 4.59.
Compound `Cc1cn([C@H]2C[C@H](N=[N+]=[N-])[C@@H](CO)O2)c(=O)[nH]c1=O` [ZIDOVUDINE] has a pEC50 [2] of 8.21.
With `C=C(C)[C@@H]1CC[C@]2(CO)CC[C@]3(C)[C@H](CC[C@@H]4[C@@]5(C)CC[C@H](OC(=O)CC(C)(C)CC(=O)O)C(C)(C)[C@@H]5CC[C@]43C)[C@@H]12` the selectivity ratio [1] was 6570, the pEC50 [2] was 8.36 and the pIC50 (H9) was 4.54.
`C=C(C)[C@@H]1CC[C@]2(C(=O)O)CC[C@]3(C)[C@H](CC[C@@H]4[C@@]5(C)CC[C@H](O)C(C)(C)[C@@H]5CC[C@]43C)[C@@H]12` [BETULINIC ACID] gave a selectivity ratio [1] of 9.2 and a pEC50 [2] of 5.85.
With `C=C(C)[C@@H]1CC[C@]2(COC(=O)C(C)(C)CC(=O)O)CC[C@]3(C)[C@H](CC[C@@H]4[C@@]5(C)CC[C@H](OC(=O)CC(C)(C)C(=O)O)C(C)(C)[C@@H]5CC[C@]43C)[C@@H]12` the selectivity ratio [1] was 42400 and the pEC50 [2] was 9.06.
With `C=C(C)[C@@H]1CC[C@]2(C(=O)O)CC[C@]3(C)[C@H](CC[C@@H]4[C@@]5(C)CC[C@H](OC(=O)CC(C)(C)C(=O)O)C(C)(C)[C@@H]5CC[C@]43C)[C@@H]12` [BEVIRIMAT] the selectivity ratio [1] was greater than 20000 and the pEC50 [2] was greater than 9.46.
Compound `CC(C)[C@@H]1CC[C@]2(CO)CC[C@]3(C)[C@H](CC[C@@H]4[C@@]5(C)CC[C@H](OC(=O)CCCC(=O)O)C(C)(C)[C@@H]5CC[C@]43C)[C@@H]12` has a selectivity ratio [1] of 1.12e+06, a pEC50 [2] of 10.70 and a pIC50 (H9) of 4.63.
With `CC(C)[C@@H]1CC[C@]2(CO)CC[C@]3(C)[C@H](CC[C@@H]4[C@@]5(C)CC[C@H](OC(=O)CC(C)(C)C(=O)O)C(C)(C)[C@@H]5CC[C@]43C)[C@@H]12` the selectivity ratio [1] was 16200, the pEC50 [2] was 8.77 and the pIC50 (H9) was 4.57.
`C=C(C)[C@@H]1CC[C@]2(CO)CC[C@]3(C)[C@H](CC[C@@H]4[C@@]5(C)CC[C@H](OC(=O)CCCC(=O)O)C(C)(C)[C@@H]5CC[C@]43C)[C@@H]12` gave a selectivity ratio [1] of 670, a pEC50 [2] of 7.22 and a pIC50 (H9) of 4.35.
